Reference: ChEMBL document CHEMBL6109040, “Tyrosine kinase 2 inhibitors: Synthesis and applications in the treatment of autoimmune diseases” (Eur J Med Chem, 2025)

Assays:
[1] = molecular target: T1, Tyrosine-protein kinase JAK1 (Homo sapiens, UniProt P23458); experiment: Binding affinity to recombinant human JAK1 JH2 (553 to 856 residues) pseudokinase domain assessed as inhibition constant by fluorescence polarization assay
[2] = molecular target: T1, Tyrosine-protein kinase JAK1; experiment: Inhibition of JAK1 (unknown origin)
[3] = Inhibition of IL-12 induced IFNgamma production in human NK92 cells; type: functional, cell-based, NK-92
[4] = molecular target: T2, Non-receptor tyrosine-protein kinase TYK2 (Homo sapiens, UniProt P29597); experiment: Binding affinity to TYK2 JH2 (556 to 888 residues) pseudokinase domain (unknown origin) assessed as dissociation constant by KINOMEscan assay
[5] = Inhibition of IFNalpha-induced STAT5 phosphorylation in human PBMC cells; type: cell-based
[6] = molecular target: T2, Non-receptor tyrosine-protein kinase TYK2; experiment: Binding affinity to recombinant human TYK2 JH2 (564 to 876 residues) pseudokinase domain assessed as dissociation constant by fluorescence polarization assay
[7] = molecular target: Tyrosine-protein kinase JAK2 (Homo sapiens, UniProt O60674); experiment: Binding affinity to JAK2 […] pseudokinase domain (unknown origin) assessed as dissociation constant by TR-FRET assay
[8] = molecular target: T2, Non-receptor tyrosine-protein kinase TYK2; experiment: Inhibition of TYK2 JH2 pseudokinase domain (unknown origin) by TR-FRET assay
[9] = Cmax in BALB/c mouse at 5 mg/kg, po by LC-MS/MS analysis; type: ADME, organism-based; conditions: in vivo
[10] = AUC in BALB/c mouse at 5 mg/kg, po by LC-MS/MS analysis; type: ADME, organism-based; conditions: in vivo

T2 sequence (P29597 whole entry, the tested form may be a part): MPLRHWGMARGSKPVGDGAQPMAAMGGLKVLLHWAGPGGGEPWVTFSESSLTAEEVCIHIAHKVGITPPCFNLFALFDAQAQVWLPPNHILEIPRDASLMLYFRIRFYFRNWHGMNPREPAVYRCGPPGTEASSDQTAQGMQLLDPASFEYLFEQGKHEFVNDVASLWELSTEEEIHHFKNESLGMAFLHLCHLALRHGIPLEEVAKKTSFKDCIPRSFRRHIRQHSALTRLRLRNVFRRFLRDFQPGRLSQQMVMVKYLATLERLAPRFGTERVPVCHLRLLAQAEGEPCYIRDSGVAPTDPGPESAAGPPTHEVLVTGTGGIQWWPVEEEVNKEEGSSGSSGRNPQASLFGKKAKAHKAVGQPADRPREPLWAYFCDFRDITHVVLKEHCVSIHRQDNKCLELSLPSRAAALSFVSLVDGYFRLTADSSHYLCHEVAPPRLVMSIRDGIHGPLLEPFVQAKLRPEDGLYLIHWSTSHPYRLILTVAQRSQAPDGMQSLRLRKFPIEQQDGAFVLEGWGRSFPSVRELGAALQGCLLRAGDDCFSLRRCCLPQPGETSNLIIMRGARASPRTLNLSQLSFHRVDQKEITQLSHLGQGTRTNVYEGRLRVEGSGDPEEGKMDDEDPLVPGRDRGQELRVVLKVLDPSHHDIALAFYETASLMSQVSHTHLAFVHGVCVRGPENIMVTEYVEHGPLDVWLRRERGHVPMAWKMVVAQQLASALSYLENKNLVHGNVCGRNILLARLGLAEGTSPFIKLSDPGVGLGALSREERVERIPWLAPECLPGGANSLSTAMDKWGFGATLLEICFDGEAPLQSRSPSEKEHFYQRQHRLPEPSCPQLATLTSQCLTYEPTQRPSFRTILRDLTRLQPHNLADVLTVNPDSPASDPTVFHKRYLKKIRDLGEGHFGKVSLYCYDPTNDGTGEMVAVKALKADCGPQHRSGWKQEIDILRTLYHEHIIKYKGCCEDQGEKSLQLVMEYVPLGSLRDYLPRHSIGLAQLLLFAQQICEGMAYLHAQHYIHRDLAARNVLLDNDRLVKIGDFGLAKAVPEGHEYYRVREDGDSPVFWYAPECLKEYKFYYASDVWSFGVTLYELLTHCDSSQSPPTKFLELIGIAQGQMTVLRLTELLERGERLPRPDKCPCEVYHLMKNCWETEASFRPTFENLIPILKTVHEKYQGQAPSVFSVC
T1 sequence (P23458 whole entry, the tested form may be a part): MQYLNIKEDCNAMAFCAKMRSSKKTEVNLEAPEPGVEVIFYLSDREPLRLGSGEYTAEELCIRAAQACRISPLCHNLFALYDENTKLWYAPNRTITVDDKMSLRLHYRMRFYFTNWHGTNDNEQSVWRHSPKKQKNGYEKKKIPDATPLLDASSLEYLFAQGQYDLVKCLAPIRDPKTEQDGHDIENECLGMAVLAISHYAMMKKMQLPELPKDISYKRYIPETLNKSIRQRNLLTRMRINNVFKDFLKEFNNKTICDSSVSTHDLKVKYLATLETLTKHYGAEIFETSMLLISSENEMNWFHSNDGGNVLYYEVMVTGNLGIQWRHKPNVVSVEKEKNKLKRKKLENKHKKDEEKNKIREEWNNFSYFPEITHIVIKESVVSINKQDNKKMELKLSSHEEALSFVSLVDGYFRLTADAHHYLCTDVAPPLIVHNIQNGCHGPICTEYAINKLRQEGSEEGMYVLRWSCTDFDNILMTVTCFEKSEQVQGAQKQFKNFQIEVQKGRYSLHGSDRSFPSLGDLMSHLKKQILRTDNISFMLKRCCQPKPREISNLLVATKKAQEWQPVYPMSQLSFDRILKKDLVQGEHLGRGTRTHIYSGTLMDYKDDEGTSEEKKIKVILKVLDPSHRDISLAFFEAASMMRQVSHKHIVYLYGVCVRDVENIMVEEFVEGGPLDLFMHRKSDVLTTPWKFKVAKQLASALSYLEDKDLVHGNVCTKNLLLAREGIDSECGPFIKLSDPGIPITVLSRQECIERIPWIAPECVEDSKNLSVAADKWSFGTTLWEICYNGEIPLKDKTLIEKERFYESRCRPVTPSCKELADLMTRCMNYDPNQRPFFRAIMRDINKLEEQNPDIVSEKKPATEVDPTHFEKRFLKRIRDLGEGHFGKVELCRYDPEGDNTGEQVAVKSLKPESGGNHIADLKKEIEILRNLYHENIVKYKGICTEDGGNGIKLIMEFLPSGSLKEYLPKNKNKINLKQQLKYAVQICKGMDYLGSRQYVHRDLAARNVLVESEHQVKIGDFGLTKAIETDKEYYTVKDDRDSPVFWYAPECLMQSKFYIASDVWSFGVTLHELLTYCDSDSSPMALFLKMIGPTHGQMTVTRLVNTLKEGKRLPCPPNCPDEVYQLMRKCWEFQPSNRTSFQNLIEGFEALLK
Sequence of Tyrosine-protein kinase JAK2 (O60674 whole entry, the tested form may be a part): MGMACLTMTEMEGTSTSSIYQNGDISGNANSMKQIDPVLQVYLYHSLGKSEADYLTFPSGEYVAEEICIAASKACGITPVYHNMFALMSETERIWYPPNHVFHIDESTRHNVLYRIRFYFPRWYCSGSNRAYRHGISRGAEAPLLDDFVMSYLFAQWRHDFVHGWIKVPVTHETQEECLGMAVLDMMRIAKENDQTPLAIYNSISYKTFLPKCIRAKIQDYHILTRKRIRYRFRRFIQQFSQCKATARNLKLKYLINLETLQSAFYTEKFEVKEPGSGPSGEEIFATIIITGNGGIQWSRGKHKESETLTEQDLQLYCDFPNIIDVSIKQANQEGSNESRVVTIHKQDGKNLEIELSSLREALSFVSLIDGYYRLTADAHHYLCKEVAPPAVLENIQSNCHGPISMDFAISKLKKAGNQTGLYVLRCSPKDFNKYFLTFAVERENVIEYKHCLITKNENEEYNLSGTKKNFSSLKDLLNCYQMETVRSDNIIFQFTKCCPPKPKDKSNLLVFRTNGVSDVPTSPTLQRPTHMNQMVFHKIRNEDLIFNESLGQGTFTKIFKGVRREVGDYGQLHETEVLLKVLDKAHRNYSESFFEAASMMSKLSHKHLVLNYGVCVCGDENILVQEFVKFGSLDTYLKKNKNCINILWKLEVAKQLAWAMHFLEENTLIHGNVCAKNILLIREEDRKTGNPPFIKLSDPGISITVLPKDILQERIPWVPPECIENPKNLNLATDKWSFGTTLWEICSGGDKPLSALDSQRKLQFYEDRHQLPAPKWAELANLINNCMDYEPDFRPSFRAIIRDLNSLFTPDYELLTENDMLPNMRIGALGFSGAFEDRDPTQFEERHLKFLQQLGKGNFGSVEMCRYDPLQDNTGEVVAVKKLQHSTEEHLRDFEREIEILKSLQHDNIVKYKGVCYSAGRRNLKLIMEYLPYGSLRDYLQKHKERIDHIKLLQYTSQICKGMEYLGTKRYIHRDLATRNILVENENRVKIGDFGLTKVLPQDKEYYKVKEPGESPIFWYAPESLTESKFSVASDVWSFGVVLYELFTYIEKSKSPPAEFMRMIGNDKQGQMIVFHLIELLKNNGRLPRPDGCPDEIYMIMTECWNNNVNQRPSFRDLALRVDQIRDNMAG

Question: With CO[C@@]1(c2cc(C)cc(-n3cc(C4CC4)c4cnc(NC(C)=O)cc43)n2)CCOC1 as the compound, how does the Ki [1] read?
Answer: The Ki was > 10000 nM.

Question: With CNC(=O)c1nnc(NC(=O)N2CCC2)cc1Nc1cccc(-c2ncn(C)n2)c1OC as the compound, how does the IC50 [2] read?
Answer: The IC50 was 5900 nM.

Question: With NC(=O)c1nnc(-c2c(F)cccc2F)cc1Nc1ccc(N2CCOCC2)cn1 as the compound, how does the IC50 [3] read?
Answer: The IC50 was 80 nM.

Question: Which Kd [4] does the source give for CNc1cc2nn3c(cnc13)C(=O)N[C@H](C)COCc1ccc(OC)c(c1)N2 here?
Answer: The Kd was 0.022 nM.

Question: What about the IC50 [5] of the same compound?
Answer: The IC50 was 1.7 nM.

Question: What about the Kd [6] of the same compound?
Answer: The Kd was 0.023 nM.

Question: With CC(=O)Nc1cc(Nc2cccc(S(C)(=O)=O)n2)c(-c2ccccn2)cn1 as the compound, how does the IC50 [3] read?
Answer: The IC50 was 0.243 nM.

Question: With CNC(=O)c1cnc2cc1Nc1cc(cc(-c3ccn(C)n3)c1OC)CCOCc1cccc(n1)N2 as the compound, how does the Kd [7] read?
Answer: Its Kd is > 10000 nM.

Question: And the IC50 [8]?
Answer: Its IC50 is < 1 nM.

Question: With [2H]C([2H])([2H])N1Cc2nc(NC(=O)C3CC3)cc(Nc3cccc(-c4ncn(C)n4)c3OC)c2C1=O as the compound, how does the Cmax [9] read?
Answer: The Cmax was 1160 ng/mL.

Question: And the AUC [10]?
Answer: The AUC was 3650 ng·h/mL.
